From patent publication US20220233512A1, “INHIBITING AN IMMUNE RESPONSE MEDIATED BY ONE OR MORE OF TLR2, RAGE, CCR5, CXCR4 AND CD4” (priority 2020, published 2022)

Key:
[1] = biological target: T1, mu opiate receptor (MOR) (Rattus norvegicus, UniProt P33535); test: MOR agonist activity using [35S]GTPgS binding assay in striatal membranes; format: biochemical
T1 construct: from tissue; host or cells: striatum (membrane preparation)
Outline: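 Rat striatal membranes incubated 5 min at 30 °C in pH 7.5 HEPES buffer with 100 mM NaCl, 1 mM MgCl2 and 0.5 nM [35S]GTPgS, then 5 min with compound. Gαo-bound [35S]GTPgS isolated by immunoprecipitation and counted by liquid scintillation.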

[2] = biological target: T2, biotinylated FLNA pentapeptide of positions 2561-2565 (Homo sapiens, UniProt P21333); test: FITC-NLX-based FLNA screening assay; format: binding; conditions: for Percent inhibition of FITC-NLX binding (preliminary study): 100 nM frozen-stored FITC-NLX, average of two runs
T2 construct: the biotinylated FLNA pentapeptide of positions 2561-2565
Method: [50 ml of the peptide solution from B+50 ml binding medium, final concentration for DMSO: 0.5%].
The final assay volume is 100 ml.
The final screening concentration for each new compound is initially 10 mM.
Compounds are tested in triplicate or quadruplicate.

[3] = biological target: FLNA interactions with CXCR4, CD4 and CCR5 (Homo sapiens, UniProt P21333); test: FLNA interactions with CXCR4, CD4 and CCR5 in lymphocytes (western blot); conditions: 1 nM; lymphocytes of Ab42-treated young control subject and of AD patient
[4] = 0.1 μM compound as agonist, Series C-1 table
[5] = 1 μM compound as agonist, Series C-1 table
[6] = 0.1 μM compound as agonist, Series C-2 table
[7] = 1 μM compound as agonist, Series C-2 table

T1 sequence (P33535 whole entry): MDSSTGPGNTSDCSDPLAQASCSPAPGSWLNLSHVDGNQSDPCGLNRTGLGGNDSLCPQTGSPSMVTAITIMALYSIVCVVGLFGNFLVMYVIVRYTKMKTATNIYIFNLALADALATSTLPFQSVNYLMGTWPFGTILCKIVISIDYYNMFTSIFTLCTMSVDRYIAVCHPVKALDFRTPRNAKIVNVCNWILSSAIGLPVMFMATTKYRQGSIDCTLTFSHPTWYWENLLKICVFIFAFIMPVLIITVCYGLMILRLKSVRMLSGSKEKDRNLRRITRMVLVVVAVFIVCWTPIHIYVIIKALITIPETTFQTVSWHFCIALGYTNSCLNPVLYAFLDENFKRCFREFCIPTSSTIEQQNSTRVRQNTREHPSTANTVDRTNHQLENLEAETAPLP
Chain of FLNA interactions with CXCR4, CD4 and CCR5 (P21333 2-2647 limits assumed): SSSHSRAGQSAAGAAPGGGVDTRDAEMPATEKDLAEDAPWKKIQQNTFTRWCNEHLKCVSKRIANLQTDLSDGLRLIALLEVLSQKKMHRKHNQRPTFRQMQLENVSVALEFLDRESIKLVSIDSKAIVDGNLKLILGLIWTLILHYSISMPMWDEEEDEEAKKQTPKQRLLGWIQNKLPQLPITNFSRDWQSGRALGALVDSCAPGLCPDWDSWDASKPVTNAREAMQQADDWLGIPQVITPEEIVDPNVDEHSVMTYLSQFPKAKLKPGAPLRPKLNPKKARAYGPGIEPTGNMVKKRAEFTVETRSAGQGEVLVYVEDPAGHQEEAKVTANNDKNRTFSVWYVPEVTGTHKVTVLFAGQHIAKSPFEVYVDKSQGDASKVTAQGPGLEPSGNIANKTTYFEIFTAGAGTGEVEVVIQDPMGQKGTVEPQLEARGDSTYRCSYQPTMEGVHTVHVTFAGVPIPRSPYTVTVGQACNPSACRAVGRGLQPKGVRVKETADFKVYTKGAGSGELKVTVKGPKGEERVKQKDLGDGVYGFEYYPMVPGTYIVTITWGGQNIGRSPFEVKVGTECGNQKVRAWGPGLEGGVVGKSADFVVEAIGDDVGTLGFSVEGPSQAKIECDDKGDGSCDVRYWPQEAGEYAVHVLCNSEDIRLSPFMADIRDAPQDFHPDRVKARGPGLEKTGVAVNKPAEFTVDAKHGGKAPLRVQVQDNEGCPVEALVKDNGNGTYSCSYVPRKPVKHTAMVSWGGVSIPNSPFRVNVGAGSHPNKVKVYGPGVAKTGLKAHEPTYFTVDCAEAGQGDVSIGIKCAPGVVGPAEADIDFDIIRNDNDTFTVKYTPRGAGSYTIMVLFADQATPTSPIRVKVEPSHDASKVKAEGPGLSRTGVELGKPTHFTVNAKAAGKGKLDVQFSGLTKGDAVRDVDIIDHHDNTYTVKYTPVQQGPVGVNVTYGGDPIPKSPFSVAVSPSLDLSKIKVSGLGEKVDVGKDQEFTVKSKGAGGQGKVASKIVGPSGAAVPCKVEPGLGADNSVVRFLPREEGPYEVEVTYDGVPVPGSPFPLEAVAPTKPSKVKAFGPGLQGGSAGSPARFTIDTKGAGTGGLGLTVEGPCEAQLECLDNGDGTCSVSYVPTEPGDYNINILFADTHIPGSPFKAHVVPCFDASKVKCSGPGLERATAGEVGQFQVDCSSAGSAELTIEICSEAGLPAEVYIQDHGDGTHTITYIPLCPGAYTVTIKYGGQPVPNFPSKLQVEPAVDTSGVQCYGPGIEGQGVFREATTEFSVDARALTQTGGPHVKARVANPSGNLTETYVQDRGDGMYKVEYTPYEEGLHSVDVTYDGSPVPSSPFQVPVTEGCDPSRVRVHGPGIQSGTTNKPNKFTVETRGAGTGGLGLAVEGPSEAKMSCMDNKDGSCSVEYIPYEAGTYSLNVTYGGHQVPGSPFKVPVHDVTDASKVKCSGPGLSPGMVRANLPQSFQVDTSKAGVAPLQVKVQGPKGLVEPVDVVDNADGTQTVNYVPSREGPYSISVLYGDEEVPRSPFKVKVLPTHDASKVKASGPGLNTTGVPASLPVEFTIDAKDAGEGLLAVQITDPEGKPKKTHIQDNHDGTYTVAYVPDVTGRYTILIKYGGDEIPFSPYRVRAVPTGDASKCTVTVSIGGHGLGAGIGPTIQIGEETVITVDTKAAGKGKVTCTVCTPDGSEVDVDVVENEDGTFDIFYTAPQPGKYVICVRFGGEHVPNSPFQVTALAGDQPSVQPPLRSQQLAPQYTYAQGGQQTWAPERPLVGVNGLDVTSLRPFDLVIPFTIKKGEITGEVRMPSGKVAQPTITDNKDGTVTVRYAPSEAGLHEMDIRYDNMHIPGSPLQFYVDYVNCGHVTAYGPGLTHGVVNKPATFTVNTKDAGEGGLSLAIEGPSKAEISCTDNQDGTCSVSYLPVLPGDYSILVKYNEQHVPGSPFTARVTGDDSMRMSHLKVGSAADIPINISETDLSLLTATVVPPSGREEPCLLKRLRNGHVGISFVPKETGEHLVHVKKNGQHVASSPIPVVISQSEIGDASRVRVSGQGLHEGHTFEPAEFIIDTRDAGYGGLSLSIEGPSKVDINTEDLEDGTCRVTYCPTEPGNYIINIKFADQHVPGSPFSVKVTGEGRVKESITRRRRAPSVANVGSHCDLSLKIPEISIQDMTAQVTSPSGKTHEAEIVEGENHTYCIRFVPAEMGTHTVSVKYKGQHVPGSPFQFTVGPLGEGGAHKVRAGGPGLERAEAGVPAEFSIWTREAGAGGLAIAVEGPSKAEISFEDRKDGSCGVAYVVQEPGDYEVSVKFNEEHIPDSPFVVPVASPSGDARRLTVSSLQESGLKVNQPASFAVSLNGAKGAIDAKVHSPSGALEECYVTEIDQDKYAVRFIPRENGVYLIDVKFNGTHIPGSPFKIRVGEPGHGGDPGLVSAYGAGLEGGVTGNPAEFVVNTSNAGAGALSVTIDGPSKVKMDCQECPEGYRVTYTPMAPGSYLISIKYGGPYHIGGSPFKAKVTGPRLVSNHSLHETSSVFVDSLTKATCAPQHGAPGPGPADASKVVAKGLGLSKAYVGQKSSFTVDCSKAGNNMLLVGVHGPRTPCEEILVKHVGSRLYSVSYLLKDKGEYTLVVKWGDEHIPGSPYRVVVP

| SMILES | MOR agonist activity ([35S]GTPgS binding to Gao) [1, 4] | MOR agonist activity ([35S]GTPgS binding to Gao) ([1]; 1 μM + BFNA, Series C-1 table) | MOR agonist activity ([35S]GTPgS binding to Gao) [1, 5] | MOR agonist activity ([35S]GTPgS binding to Gao) [1, 6] | MOR agonist activity ([35S]GTPgS binding to Gao) ([1]; 1 μM + BFNA, Series C-2 table) | MOR agonist activity ([35S]GTPgS binding to Gao) [1, 7] | further results |
| --- | --- | --- | --- | --- | --- | --- | --- |
| Nc1ccc(C(=O)N2CCC3(CC2)OCCN3S(=O)(=O)c2ccc(N)cc2)cc1 [Compound C0023] | 153.2% | 23.2% | 233.7% | – | – | – | inhibition at 0.01 µM ([2]; 0.01 μM compound, C-Series-1 table, 10 nM FITC-NLX, read-out: Percent Binding Inhibition): 35.9%; inhibition at 0.1 µM ([2]; 0.1 μM compound, C-Series-1 table, 10 nM FITC-NLX, read-out: Percent Binding Inhibition): 41.7%; inhibition at 1 µM ([2]; 1 μM compound, C-Series-1 table, 10 nM FITC-NLX, read-out: Percent Binding Inhibition): 47.2% |
| C=CCN1CC[C@]23c4c5ccc(O)c4O[C@H]2C(=O)CC[C@]3(O)[C@H]1C5 [(+) NLX] | – | – | – | – | – | – | Percent inhibition of FITC-NLX binding (preliminary study) ([2]; 0.1 nM compound): 22.7%; Percent inhibition of FITC-NLX binding (preliminary study) ([2]; 1 nM compound): 22.8%; Percent inhibition of FITC-NLX binding (preliminary study) ([2]; 10 nM compound): 23.1%; Percent inhibition of FITC-NLX binding (preliminary study) ([2]; 100 nM compound): 22.8%; Percent inhibition of FITC-NLX binding (preliminary study) ([2]; 1 mM compound): 39.8% |
| C=CCN1CC[C@]23c4c5ccc(O)c4O[C@H]2C(=O)CC[C@@]3(O)[C@H]1C5 [Naloxone, naloxone, reference compound] | – | – | – | – | – | – | FLNA linkages with CXCR4, CD4 and CCR5 (in words) [3]: reduced these linkages |
| O=C1CNC2(CCN(S(=O)(=O)c3ccc(O)cc3)CC2)N1Cc1ccccc1 [Compound C0148M] | 181.3% | 87.6% | 360.6% | – | – | – | % DAMGO + BFNA ([1]; relative to DAMGO + BFNA, Series C-1 table): 95.9%; % DAMGO (0.1 μM) ([1]; relative to DAMGO at 0.1 μM, Series C-1 table): 105.4%; % DAMGO (1 μM) ([1]; relative to DAMGO at 1 μM, Series C-1 table): 110.6% |
| O=S(=O)(c1ccc(Cl)cc1)N1CCC2(CC1)OCCN2S(=O)(=O)c1ccc(Cl)cc1 [Compound C0067] | 142.7% | 33.5% | 179.0% | – | – | – | – |
| O=S(=O)(c1ccc(Br)cc1F)N1CCC2(CC1)OCCN2S(=O)(=O)c1ccc(Br)cc1F [Compound C0078] | 138.1% | 170.7% | 236.6% | – | – | – | – |
| CS(=O)(=O)c1ccc(S(=O)(=O)N2CCOC23CCNCC3)cc1 [Compound C0116M] | – | – | – | 258.4% | 152.0% | 302.8% | – |
| O=C1CNC2(CCN(CC3CC3)CC2)N1Cc1ccccc1 [Compound C0124M] | – | – | – | 252.0% | 61.4% | 305.1% | – |
| Cc1ccccc1S(=O)(=O)N1CCC2(CC1)OCCN2S(=O)(=O)c1ccccc1C [Compound C0015] | 138.7% | 126.8% | 204.7% | – | – | – | – |
| COc1ccc(C(=O)N2CCC3(CC2)OCCN3C(=O)c2ccc(OC)cc2)cc1 [Compound C0017] | 153.8% | 94.1% | 284.5% | – | – | – | – |
| COc1ccc(S(=O)(=O)N2CCC3(CC2)OCCN3S(=O)(=O)c2ccc(OC)cc2)cc1 [Compound 7866] | 152.3% | 62.4% | 308.2% | – | – | – | – |
| CC(=O)c1ccc(S(=O)(=O)N2CCC3(CC2)NC(=O)CN3S(=O)(=O)c2ccc(C(C)=O)cc2)cc1 [Compound C0064] | 213.8% | 38.1% | 349.6% | – | – | – | – |
| CC(=O)c1ccc(S(=O)(=O)N2CCOC23CCNCC3)cc1 [Compound C0046] | – | – | – | 286.2% | 156.8% | 492.9% | – |
| COc1cccc(S(=O)(=O)N2CCC3(CC2)OCCN3S(=O)(=O)c2cccc(OC)c2)c1 [Compound C0002] | 88.4% | 3.9% | 93.8% | – | – | – | – |
| O=C1CN(Cc2ccccc2)C2(CCN(S(=O)(=O)c3cc(Cl)c(O)c(Cl)c3)CC2)N1 [Compound C0139M] | 156.1% | 51.0% | 206.6% | – | – | – | – |
| COc1ccc(S(=O)(=O)N2CCOC23CCN(C)CC3)cc1 [Compound C0088M] | – | – | – | 276.3% | 177.1% | 355.3% | – |
| CC(=O)c1ccc(S(=O)(=O)N2CCC3(CC2)NCC(=O)N3Cc2ccccc2)cc1 [Compound C0082M] | 228.1% | 97.6% | 338.4% | – | – | – | – |
| COc1ccc(S(=O)(=O)N2CCCC3(C2)OCCN3S(=O)(=O)c2ccc(OC)cc2)cc1 (stereo not drawn) [Compound C0145M] | 193.0% | 87.0% | 289.2% | – | – | – | – |
| CC(=O)c1ccc(S(=O)(=O)N2CCC3(CC2)OCCN3S(C)(=O)=O)cc1 [Compound C0056] | – | – | – | 98.6% | 86.3% | 193.4% | – |
| CC(=O)c1ccc(S(=O)(=O)N2CCOC23CCN(CC(=O)O)CC3)cc1 [Compound C0100M] | – | – | – | 173.6% | 195.6% | 245.9% | – |
| O=S(=O)(c1cccc2cccnc12)N1CCC2(CC1)OCCN2S(=O)(=O)c1cccc2cccnc12 [Compound C0143M] | 81.0% | 86.5% | 193.3% | 81.0% | 86.5% | 193.3% | – |
| COc1ccc(S(=O)(=O)N2CCC3(OCCN3S(=O)(=O)c3ccc(OC)cc3)C3CCCCC32)cc1 (stereo not drawn) [Compound C0144M] | 186.3% | 125.9% | 295.9% | – | – | – | – |
| CC(O)c1ccc(S(=O)(=O)N2CCC3(CC2)OCCN3S(=O)(=O)c2ccc(C(C)O)cc2)cc1 (stereo not drawn) [Compound C0051] | 94.4% | 55.9% | 170.4% | – | – | – | – |
| CS(=O)(=O)c1ccc(S(=O)(=O)N2CCOC23CCN(CC2CC2)CC3)cc1 [Compound C0126M] | – | – | – | 181.8% | 108.5% | 265.3% | – |
| O=S(=O)(c1ccc(Br)cc1Br)N1CCC2(CC1)OCCN2S(=O)(=O)c1ccc(Br)cc1Br [Compound C0070] | 165.6% | 114.2% | 210.8% | – | – | – | – |
| COc1ccc(NC(=O)N2CCC3(CC2)NCCO3)cc1 [Compound C0151M-2] | – | – | – | 346.8% | 212.8% | 397.6% | – |
